The subject of one experiment is VCaP cells. Nature of the experiment: Cellular growth inhibition assay for VCaP cells, CellTiter-Glo. The conditions noted are these: 72 hours treatment, CellTiter-Glo 2.0. Type of experiment: cell-based, human. Here is the method:
VCaP cells were purchased from American Type Cell Culture (ATCC Cat #CRL2876) and then seeded on poly-D-lysine coated, black clear-bottom 384-well plates at 5000/well in 25 μL Dulbecco's Modified Eagle Medium (DMEM) supplemented with 10% w/w Fetal bovine serum (FBS) and 1% w/w Pen-Strep. Pen-Strep is a commercially available mixture of penicillin G and streptomycin, which is used in mammalian cell culture media to prevent bacterial contamination. Dulbecco's Modified Eagle Medium (DMEM) supplemented with 10% w/w fetal bovine serum (FBS) and 1% w/w Pen-Strep is herein referred to as Treatment Medium. Following seeding of cells in the plates, the plates were spun at 300×g for 30 seconds, then equilibrated to room temperature for 30 minutes, and then deposited in a humidified tissue culture incubator maintained at 37° C. with 5% CO2.
(§1) At 24 hours after seeding of the cells, dilutions of test compound were prepared in DMSO and dissolved in Treatment Medium, to achieve a final DMSO concentration of 0.5% w/w, thereby providing the Test Compound Solution. A 25 μL aliquot of the Test Compound Solution was added to cells in the well plates. An equal volume of a solution containing DMSO and Treatment Medium was used as a negative control. Following treatment of cells with Test Compound Solution or said equal volume of a solution containing DMSO and Treatment Medium, the plates were spun at 300×g for 30 seconds, and then left in an incubator for 72 hours.
(§2) At the end of the treatment duration, cell viability was quantified with CellTiter-Glo 2.0 reagent (Promega Cat #G9243). For this purpose, plates were equilibrated to room temperature for 30 minutes, and then 25 μL of CellTiter-Glo 2.0 reagent was added to cells in the plate wells. Plates were then agitated on a shaker for two minutes at 500 rpm and subsequently incubated at room temperature for 10 minutes. Following incubation, the plates were spun at 3000×g for 30 seconds, then sealed with an optical adhesive cover, and luminescence readings were measured with an EnVision Plate Reader.
(§3) Data was normalized using zero luminescence for baseline. A four-parameter non-linear regression curve fit was applied to dose-response data in GraphPad Prism data analysis software to determine the half-maximal growth inhibitory concentration (GI50) for each test compound.
In general terms: In ATP-based viability assays light output follows the ATP content of the culture.

The next experiment concerns T47D cells. Briefly: Cellular growth inhibition assay for T47D cells, CellTiter-Glo. In kind it is cell-based, human. The conditions noted are these: 72 hours treatment, CellTiter-Glo 2.0 cell viability. The protocol: T47D cells were purchased from American Type Cell Culture (ATCC Cat #HTB-133) and then seeded on poly-D-lysine coated, black clear-bottom 384-well plates at 3000/well in 25 μL Dulbecco's Modified Eagle Medium (DMEM) supplemented with 10% w/w Fetal bovine serum (FBS), 0.2 units/mL recombinant human insulin (Gibco Cat #12585014), and 1% w/w Pen-Strep. Pen-Strep is a commercially available mixture of penicillin G and streptomycin, which is used in mammalian cell culture media to prevent bacterial contamination. Dulbecco's Modified Eagle Medium (DMEM) supplemented with 10% w/w fetal bovine serum (FBS), 0.2 units/mL recombinant human insulin, and 1% w/w Pen-Strep is herein referred to as Treatment Medium. Following seeding of cells in the plates, the plates were spun at 300×g for 30 seconds, then equilibrated to room temperature for 30 minutes, and then deposited in a humidified tissue culture incubator maintained at 37° C. with 5% CO2.
as §1
as §2, with “Reader (Perkin Elmer).” for “Reader.”
as §3

On to `Cc1sc2c(c1C)C(c1ccc(C(=O)N3CCC[C@@H](Cc4ncc(C(=O)N[C@H]5C(C)(C)[C@H](Oc6ccc(C#N)c(Cl)c6)C5(C)C)cn4)C3)cc1)=N[C@@H](Cc1ncco1)c1nnc(C)n1-2` [Compound I-319], for which the concentration for 50% growth inhibition (GI50) (usually the concentration at which growth is held to half of that of the control) in the experiment with VCaP cells is 1500 to 3000 nM; in the experiment on T47D cells, > 3000 nM.

With `Cc1sc2c(c1C)C(c1ccc(C[C@@H]3CC[C@@H]4CN(c5ncc(C(=O)N[C@H]6C(C)(C)[C@H](Oc7ccc(C#N)c(Cl)c7)C6(C)C)cn5)CCN4C3)cc1)=C[C@@H](Cc1ncco1)c1nnc(C)n1-2` [Compound I-305], the 50% growth inhibitory concentration (GI50) in the experiment on VCaP cells (Homo sapiens, VCaP, 72 h) was > 3000 nM; with T47D cells (Homo sapiens, T47D, 72 h) it was 500 to 1500 nM. On the same counts, the results for `Cc1sc2c(c1C)C(c1ccc(C[C@@H]3CC[C@]4(C3)CN(c3ncc(C(=O)N[C@H]5C(C)(C)[C@H](Oc6ccc(C#N)c(Cl)c6)C5(C)C)cn3)CCO4)cc1)=N[C@@H](Cc1ncco1)c1nnc(C)n1-2` [Compound I-308] are > 3000 nM and > 3000 nM. The matching figures for `Cc1sc2c(c1C)C(c1ccc(C[C@H]3CC[C@@H]4CN(c5ncc(C(=O)N[C@H]6C(C)(C)[C@H](Oc7ccc(C#N)c(Cl)c7)C6(C)C)cn5)CCN4C3)cc1)=N[C@@H](Cc1ncco1)c1nnc(C)n1-2` [Compound I-304]: < 500 nM and > 3000 nM. On the same counts, the results for `Cc1sc2c(c1C)C(c1ccc(C[C@H]3CC[C@]4(C3)CN(c3ncc(C(=O)N[C@H]5C(C)(C)[C@H](Oc6ccc(C#N)c(Cl)c6)C5(C)C)cn3)CCO4)cc1)=N[C@@H](Cc1ncco1)c1nnc(C)n1-2` [Compound I-310] are < 500 nM and < 500 nM. For the molecule `Cc1sc2c(c1C)C(c1ccc(C[C@@H]3CC[C@@H]4CN(c5ncc(C(=O)N[C@H]6C(C)(C)[C@H](Oc7ccc(C#N)c(Cl)c7)C6(C)C)cn5)CCN4C3)cc1)=N[C@H](Cc1ncco1)c1nnc(C)n1-2` [Compound I-307], the GI50 was < 500 nM in the experiment on VCaP cells (Homo sapiens, VCaP, 72 h) and < 500 nM in the experiment with T47D cells (Homo sapiens, T47D, 72 h). For the molecule `Cc1sc2c(c1C)C(c1ccc(CCC[C@H]3CCCN(c4ncc(C(=O)N[C@H]5C(C)(C)[C@H](Oc6ccc(C#N)c(Cl)c6)C5(C)C)cn4)C3)cc1)=N[C@@H](Cc1ncco1)c1nnc(C)n1-2` [Compound I-321], the GI50 with VCaP cells (Homo sapiens, VCaP, 72 h) was < 500 nM; in the experiment on T47D cells (Homo sapiens, T47D, 72 h), < 500 nM. Take `Cc1sc2c(c1C)C(c1ccc(C(=O)N3CCC[C@@H](Cc4ncc(C(=O)N[C@H]5C(C)(C)[C@H](Oc6ccc(C#N)c(Cl)c6)C5(C)C)cn4)C3)cc1)=N[C@@H](Cc1ncco1)c1nnc(C)n1-2` [Compound I-318]: the concentration for 50% growth inhibition (GI50) is > 3000 nM in the experiment with VCaP cells (Homo sapiens, VCaP, 72 h) and > 3000 nM in the experiment on T47D cells (Homo sapiens, T47D, 72 h). Consider `Cc1sc2c(c1C)C(c1ccc(CCC[C@@H]3CCCN(c4ncc(C(=O)N[C@H]5C(C)(C)[C@H](Oc6ccc(C#N)c(Cl)c6)C5(C)C)cn4)C3)cc1)=N[C@@H](Cc1ncco1)c1nnc(C)n1-2` [Compound I-320], for which the GI50 in the experiment on VCaP cells (Homo sapiens, VCaP, 72 h) is < 500 nM; with T47D cells (Homo sapiens, T47D, 72 h), < 500 nM. As to `Cc1sc2c(c1C)C(c1ccc(OC3CCN(C4CCN(c5ncc(C(=O)N[C@H]6C(C)(C)[C@H](Oc7ccc(C#N)c(Cl)c7)C6(C)C)cn5)CC4)CC3)cc1)=N[C@@H](Cc1ncco1)c1nnc(C)n1-2` [Compound I-313], the GI50 in the experiment on VCaP cells (Homo sapiens, VCaP, 72 h) was < 500 nM; in the experiment with T47D cells (Homo sapiens, T47D, 72 h) it was < 500 nM.

Turning to `Cc1sc2c(c1C)C(c1ccc(N3CCC[C@H](C(=O)N4CCCC4c4ncc(C(=O)N[C@H]5C(C)(C)[C@H](Oc6ccc(C#N)c(Cl)c6)C5(C)C)cn4)C3)cc1)=N[C@H](Cc1ncco1)c1nnc(C)n1-2` (stereo partly drawn) [Compound I-315], the GI50 in the experiment on VCaP cells (Homo sapiens, VCaP, 72 h) is > 3000 nM; in the experiment with T47D cells (Homo sapiens, T47D, 72 h), > 3000 nM. `Cc1sc2c(c1C)C(c1ccc(CNC(=O)Cc3ncc(C(=O)N[C@H]4C(C)(C)[C@H](Oc5ccc(C#N)c(Cl)c5)C4(C)C)cn3)cc1)=N[C@@H](Cc1ncco1)c1nnc(C)n1-2` [Compound I-316]: the concentration for 50% growth inhibition (GI50) in the experiment with VCaP cells (Homo sapiens, VCaP, 72 h) was < 500 nM; in the experiment on T47D cells (Homo sapiens, T47D, 72 h), 500 to 1500 nM.

Take `Cc1sc2c(c1C)C(c1ccc(N3CC4(C3)CN(c3ncc(C(=O)N[C@H]5C(C)(C)[C@H](Oc6ccc(C#N)c(Cl)c6)C5(C)C)cn3)C4)cc1)=N[C@@H](C)c1nnc(C)n1-2` [Compound I-516]: in the experiment on T47D cells (Homo sapiens, T47D, 72 h), the GI50 lay in the range of 1500 to 3000 nM. Regarding `Cc1sc2c(c1C)C(c1ccc(OC[C@@H]3CCCN(c4cnc(C(=O)N[C@H]5C(C)(C)[C@H](Oc6ccc(C#N)c(Cl)c6)C5(C)C)cn4)C3)cc1)=N[C@@H](Cc1ncco1)c1nnc(C)n1-2` [Compound I-591], the concentration for 50% growth inhibition (GI50) in the experiment on T47D cells (Homo sapiens, T47D, 72 h) was < 500 nM. For the molecule `Cc1sc2c(c1C)C(c1ccc(CCO[C@H]3CCCN(c4ncc(C(=O)N[C@H]5C(C)(C)[C@H](Oc6ccc(C#N)c(Cl)c6)C5(C)C)cn4)C3)cc1)=N[C@@H](Cc1ncco1)c1nnc(C)n1-2` [Compound I-323], the concentration for 50% growth inhibition (GI50) in the experiment with VCaP cells (Homo sapiens, VCaP, 72 h) was < 500 nM; in the experiment with T47D cells (Homo sapiens, T47D, 72 h) it was < 500 nM. On to `Cc1sc2c(c1C)C(c1ccc(C#CC3CCC(Cc4ncc(C(=O)N[C@H]5C(C)(C)[C@H](Oc6ccc(C#N)c(Cl)c6)C5(C)C)cn4)CC3)cc1)=N[C@@H](Cc1ncco1)c1nnc(C)n1-2` (stereo partly drawn) [Compound I-505], for which the GI50 in the experiment with T47D cells is > 3000 nM. In the experiment with T47D cells (Homo sapiens, T47D, 72 h), `Cc1sc2c(c1C)C(c1ccc(CC3CC4(CCN(c5ccc(C(=O)N[C@H]6C(C)(C)[C@H](Oc7ccc(C#N)c(Cl)c7)C6(C)C)nc5)CC4)C3)cc1)=NC1(CC1)c1nnc(C)n1-2` [Compound I-522] gave a 50% growth inhibitory concentration (GI50) of 1500 to 3000 nM. As for `Cc1sc2c(c1C)C(c1ccc(CCO[C@@H]3CCCN(c4ncc(C(=O)N[C@H]5C(C)(C)[C@H](Oc6ccc(C#N)c(Cl)c6)C5(C)C)cn4)C3)cc1)=N[C@@H](Cc1ncco1)c1nnc(C)n1-2` [Compound I-322], the 50% growth inhibitory concentration (GI50) in the experiment on VCaP cells (Homo sapiens, VCaP, 72 h) is < 500 nM; in the experiment with T47D cells (Homo sapiens, T47D, 72 h), < 500 nM. Turning to `Cc1sc2c(c1C)C(c1ccc(N3CC(C4CCN(c5ccc(C(=O)N[C@H]6C(C)(C)[C@H](Oc7ccc(C#N)c(Cl)c7)C6(C)C)cn5)CC4)C3)cc1)=NC1(CC1)c1nnc(C)n1-2` [Compound I-534], in the experiment with T47D cells (Homo sapiens, T47D, 72 h), the GI50 is > 3000 nM. As to `Cc1sc2c(c1C)C(c1ccc(OC3CC4(C3)CC3(CCN(c5ccc(C(=O)N[C@H]6C(C)(C)[C@H](Oc7ccc(C#N)c(Cl)c7)C6(C)C)nc5)CC3)C4)cc1)=NC1(CC1)c1nnc(C)n1-2` [Compound I-530], in the experiment with T47D cells (Homo sapiens, T47D, 72 h), the 50% growth inhibitory concentration (GI50) is > 3000 nM.

As to `Cc1sc2c(c1C)C(c1ccc(N3CC(C4CCCC(Cc5ncc(C(=O)N[C@H]6C(C)(C)[C@H](Oc7ccc(C#N)c(Cl)c7)C6(C)C)cn5)C4)C3)cc1)=N[C@@H](Cc1ncco1)c1nnc(C)n1-2` (stereo partly drawn) [Compound I-582], in the experiment with T47D cells, the 50% growth inhibitory concentration (GI50) is < 500 nM. `Cc1sc2c(c1C)C(c1ccc([C@H]3C[C@@H]3CC3CCCN(c4ncc(C(=O)N[C@H]5C(C)(C)[C@H](Oc6ccc(C#N)c(Cl)c6)C5(C)C)cn4)C3)cc1)=N[C@@H](Cc1ncco1)c1nnc(C)n1-2` (stereo partly drawn) [Compound I-492]: in the experiment on T47D cells, the concentration for 50% growth inhibition (GI50) is > 3000 nM.

As to `Cc1sc2c(c1C)C(c1ccc(C3CC(CC4CCN(c5ncc(C(=O)N[C@H]6C(C)(C)[C@H](Oc7ccc(C#N)c(Cl)c7)C6(C)C)cn5)CC4)C3)cc1)=NC(C)c1nnc(C)n1-2` (stereo partly drawn) [Compound I-510], the concentration for 50% growth inhibition (GI50) in the experiment on T47D cells was > 3000 nM. Still for that read-out and setting: for `Cc1sc2c(c1C)C(c1ccc(N3CC(C4CCC(Cc5ncc(C(=O)N[C@H]6C(C)(C)[C@H](Oc7ccc(C#N)c(Cl)c7)C6(C)C)cn5)CC4)C3)cc1)=N[C@@H](Cc1ncco1)c1nnc(C)n1-2` (stereo partly drawn) [Compound I-544] the value was 500 to 1500 nM.

For `Cc1sc2c(c1C)C(c1ccc(N3CC(CC4CCN(c5ccc(C(=O)N[C@H]6C(C)(C)[C@H](Oc7ccc(C#N)c(Cl)c7)C6(C)C)cn5)CC4)C3)cc1)=N[C@@H](C)c1nnc(C)n1-2` [Compound I-502], the GI50 in the experiment on T47D cells (Homo sapiens, T47D, 72 h) is < 500 nM.

For the origin of these results see patent publication US20260062422A1 (Halda Therapeutics OpCo, Inc., priority 2022, published 2026).
